Measured values as given in patent US10787435B2, “ASK1 inhibitor and preparation method and use thereof” (FUJIAN COSUNTER PHARMACEUTICAL CO., LTD., priority 2017, dated 2020).

Key:
ASK1/MAP3K5 = ASK1/MAP3K5 (Homo sapiens (Human), UniProt Q99683); experiment: Evaluation of in vitro enzyme activity (33P-ATP radiometric kinase assay, MBP substrate); format: biochemical; conditions: recombinant human full length GST-tagged ASK1 20 nM, MBP 20 μM
Description: Example 1: Evaluation of In Vitro Enzyme Activity
Base Reaction Buffer: 20 mM Hepes (pH 7.5), 10 mM MgCl2, 1 mM EGTA, 0.02% Brij35, 0.02 mg/ml BSA, 0.1 mM Na3VO4, 2 mM DTT, 1% DMSO
The test compound was formulated into a 10 mM stock solution in DMSO, which was diluted into 10 concentrations in 3-fold degression, and placed in a 384-well plate (Cyclic Olefin Copolymer LDV Echo®).
Kinase Name: ASK1/MAP3K5 (Invitrogen, Carlsbad, Calif.)
Type: Recombinant Human Full Length Protein, GST-tagged
Final concentration of the enzyme: 20 nM
Substrate: Myelin basic protein, MBP (Active Motif, Carlsbad, Calif.)
Final concentration of the substrate: 20 μM
1. The substrate was dissolved in a freshly prepared base reaction buffer.
2. A desired coenzyme was added to the above substrate solution.
3. The kinase was added to the substrate solution and mixed slowly.
4. The solution of the test compound in DMSO was added to the kinase reaction solution and incubated at room temperature for 20 minutes.
5. ^33P-ATP (specific activity of 10 μCi/μl) was added to the reaction solution to initiate the reaction.
6. Incubated at room temperature for 2 hours.
7. A small portion of the reactants was placed onto a P-81 ion exchange filter paper.
8. The filter paper was washed three times with 0.75% […] to wash off the unbound phosphate, and then the filter paper was dried.
9. The radioactivity remaining on the filter paper was determined.
10. Kinase activity data was expressed as the ratio of the kinase activity remaining in the test sample to the kinase activity in the vehicle (DMSO).
11. IC50 values and curve fits was obtained with Prism (GraphPad software).

[1] = Studies on pharmacokinetic properties in mice (plasma concentration by LC-MS/MS); format: in vivo; conditions: C57BL/6 male mice, dose not stated; for Exposure: intravenous or oral administration; for bioavailability: mouse, po, intragastric vs tail vein
Description: Example 2: Studies on Pharmacokinetic Properties
C57BL/6 male mice were used as subject animals in the study. The concentration of the drug in the plasma of mice injected intravenously or administrated orally with the test compound was quantified at different time points by using a LC/MS/MS method to evaluate the pharmacokinetic characteristics of the test drug in mice.
A clear solution of the test compound was injected into C57BL/6 mice (overnight-fasted, 7-10 weeks old) via the tail vein, and the test compound was intragastrically administered to C57BL/6 mice (overnight-fasted, 7-10 weeks old). Approximately 30 μL of blood was collected from each animal via the jugular vein or tail vein at 0.0833, 0.25, 0.5, 1, 2, 4, 6, 8 and 24 hours after administration, and placed in an anticoagulant tube supplemented with EDTA-K2. Centrifuged at 3000 g at 4° C. for 15 min, and the plasma was collected. The plasma concentration was determined by LC-MS/MS. The pharmacokinetic parameters were calculated by using the non-compartment model and linear logarithmic trapezoidal method using the pharmacokinetic software WinNonlin™ Version 6.3 (Pharsight, Mountain View, Calif.).

ASK1/MAP3K5, sequence (Q99683 whole entry): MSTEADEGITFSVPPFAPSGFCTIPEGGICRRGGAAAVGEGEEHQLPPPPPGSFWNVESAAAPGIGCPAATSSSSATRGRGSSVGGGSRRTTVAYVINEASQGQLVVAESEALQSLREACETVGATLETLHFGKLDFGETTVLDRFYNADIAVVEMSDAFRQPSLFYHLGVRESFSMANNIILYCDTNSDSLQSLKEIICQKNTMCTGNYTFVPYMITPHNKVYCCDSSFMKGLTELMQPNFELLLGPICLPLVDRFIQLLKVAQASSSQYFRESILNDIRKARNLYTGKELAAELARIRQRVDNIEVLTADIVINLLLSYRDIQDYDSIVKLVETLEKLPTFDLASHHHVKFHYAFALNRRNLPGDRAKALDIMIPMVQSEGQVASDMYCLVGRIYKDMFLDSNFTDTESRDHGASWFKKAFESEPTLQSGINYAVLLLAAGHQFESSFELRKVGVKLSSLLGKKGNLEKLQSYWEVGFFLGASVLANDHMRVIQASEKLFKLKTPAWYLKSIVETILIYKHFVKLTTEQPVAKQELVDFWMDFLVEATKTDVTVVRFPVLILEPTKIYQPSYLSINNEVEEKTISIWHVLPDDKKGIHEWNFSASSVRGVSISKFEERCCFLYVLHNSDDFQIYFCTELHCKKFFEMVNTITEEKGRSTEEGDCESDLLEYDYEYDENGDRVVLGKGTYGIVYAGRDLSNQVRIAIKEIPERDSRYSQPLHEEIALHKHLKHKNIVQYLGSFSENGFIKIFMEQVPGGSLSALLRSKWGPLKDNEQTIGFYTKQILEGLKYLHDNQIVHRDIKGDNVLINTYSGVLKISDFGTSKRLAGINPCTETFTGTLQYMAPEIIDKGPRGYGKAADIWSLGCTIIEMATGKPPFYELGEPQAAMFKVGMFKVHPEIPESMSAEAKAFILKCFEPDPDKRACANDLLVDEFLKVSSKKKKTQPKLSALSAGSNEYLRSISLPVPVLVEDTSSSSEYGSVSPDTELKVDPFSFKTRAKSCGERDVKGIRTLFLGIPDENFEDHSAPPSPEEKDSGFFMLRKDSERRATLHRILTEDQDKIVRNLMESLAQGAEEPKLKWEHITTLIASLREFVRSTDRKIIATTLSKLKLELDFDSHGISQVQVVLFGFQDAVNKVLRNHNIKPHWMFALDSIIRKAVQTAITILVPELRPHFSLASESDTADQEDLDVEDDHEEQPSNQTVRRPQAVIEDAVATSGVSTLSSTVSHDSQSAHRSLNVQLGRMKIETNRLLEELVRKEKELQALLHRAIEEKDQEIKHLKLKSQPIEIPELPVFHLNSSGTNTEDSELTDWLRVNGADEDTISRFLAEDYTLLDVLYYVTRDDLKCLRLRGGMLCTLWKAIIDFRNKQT

IC50 (ASK1/MAP3K5) | Exposure [1] | bioavailability [1] | SMILES
≤ 50 nM |  |  | CC(C)n1cnnc1-c1cccc(-n2cnc3cc(OCCCF)c(-n4cnc(C5CC5)c4)cc3c2=O)n1 [Example 054]
≤ 50 nM | 29.007 µM·h | 123% | Cc1cc2c(F)cn(-c3cccc(-c4nncn4C(C)C)n3)c(=O)c2cc1-n1cnc(C2CC2)c1 [Example 007]
≤ 50 nM |  |  | CC(C)n1cnnc1-c1cccc(-n2ccc3ccc(-n4cnc(C5CC5)c4)cc3c2=O)n1 [Example 004]
≤ 50 nM |  |  | Cc1cc2ncn(-c3cccc(-c4nncn4C4CCCCC4)n3)c(=O)c2cc1-n1cnc(C2CC2)c1 [Example 051]
≤ 50 nM |  |  | CC(C)n1cnnc1-c1cccc(-n2cnc3cc(-c4ccsc4)c(-n4cnc(C5CC5)c4)cc3c2=O)n1 [Example 025]
≤ 50 nM |  |  | CCC(CC)n1cnnc1-c1cccc(-n2cnc3cc(C)c(-n4cnc(C5CC5)c4)cc3c2=O)n1 [Example 045]
50 to 1000 nM |  |  | Cc1cc2ncn(-c3cccc(-c4nncn4C4CCOCC4)n3)c(=O)c2cc1-n1cnc(C2CC2)c1 [Example 048]
50 to 1000 nM |  |  | Cc1cc2ncn(-c3cccc(-c4nnc5n4CCCC5)n3)c(=O)c2cc1-n1cnc(C2CC2)c1 [Example 014]
≤ 50 nM |  |  | CC(C)n1cnnc1-c1cccc(-n2cnc3cc(OCC(N)=O)c(-n4cnc(C5CC5)c4)cc3c2=O)n1 [Example 038]
≤ 50 nM |  |  | CC(C)n1cnnc1-c1cccc(-n2cnc3cc(OCCO)c(-n4cnc(C5CC5)c4)cc3c2=O)n1 [Example 041]
≤ 50 nM |  |  | CC(C)n1cnnc1-c1cccc(-n2cnc3cc(N4CCOCC4)c(-n4cnc(C5CC5)c4)cc3c2=O)n1 [Example 056]
≤ 50 nM |  |  | Cc1cc2ncn(-c3cccc(-c4nncn4C(C)C)n3)c(=O)c2cc1-c1ccc(C(C)C)nc1 [Example 052]
50 to 1000 nM |  |  | Cc1cc2ncn(-c3cccc(-c4nncn4C4CCC(F)(F)CC4)n3)c(=O)c2cc1-n1cnc(C2CC2)c1 [Example 049]
≤ 50 nM |  |  | Cc1ccc(-c2cc3ncn(-c4cccc(-c5nncn5C(C)C)n4)c(=O)c3cc2-n2cnc(C3CC3)c2)cn1 [Example 032]
≤ 50 nM |  |  | CC(C)n1cnnc1-c1cccc(-n2cnc3cc(N(C)C)c(-n4cnc(C5CC5)c4)cc3c2=O)n1 [Example 055]
≤ 50 nM |  |  | CC(C)n1cnnc1-c1cccc(-n2cnc3cc(OCC4COC4)c(-n4cnc(C5CC5)c4)cc3c2=O)n1 [Example 058]
≤ 50 nM |  |  | COCCOc1cc2ncn(-c3cccc(-c4nncn4C(C)C)n3)c(=O)c2cc1-n1cnc(C2CC2)c1 [Example 035]
≤ 50 nM |  |  | Cc1cc2ccn(-c3cccc(-c4nncn4C(C)C)n3)c(=O)c2cc1-n1cnc(C2CC2)c1 [Example 006]
≤ 50 nM |  |  | Cc1cc2ncn(-c3cccc(-c4nncn4CC(F)(F)F)n3)c(=O)c2cc1-n1cnc(C2CC2)c1 [Example 019]
≤ 50 nM |  |  | Cc1cc2ncn(-c3cccc(-c4nncn4C(C)(C)C)n3)c(=O)c2cc1-n1cnc(C2CC2)c1 [Example 047]
≤ 50 nM | 59.568 µM·h | 111% | Cc1cc2ncn(-c3cccc(-c4nncn4C4CC4)n3)c(=O)c2cc1-n1cnc(C2CC2)c1 [Example 018]
≤ 50 nM | 66.259 µM·h | 214% | CC(C)n1cnnc1-c1cccc(-n2cc(F)c3ccc(-n4cnc(C5CC5)c4)cc3c2=O)n1 [Example 003]
≤ 50 nM | 69.652 µM·h | 133% | CC(C)n1cnnc1-c1cccc(N2CCc3ccc(-n4cnc(C5CC5)c4)cc3C2=O)n1 [Example 001]
≤ 50 nM |  |  | CC(C)n1cnnc1-c1cccc(-n2cnc3cc(-c4ccc(N)nc4)c(-n4cnc(C5CC5)c4)cc3c2=O)n1 [Example 034]
≤ 50 nM |  |  | CC(C)n1cnnc1-c1cccc(N2Cc3ccc(-n4cnc(C5CC5)c4)cc3C2=O)n1 [Example 005]
≤ 50 nM |  |  | CC(C)n1cnnc1-c1cccc(-n2cnc3cc(-c4ccccc4)c(-n4cnc(C5CC5)c4)cc3c2=O)n1 [Example 023]
50 to 1000 nM |  |  | Cc1cc2c(F)cn(-c3cccc(-c4nnc5n4CCCC5)n3)c(=O)c2cc1-n1cnc(C2CC2)c1 [Example 017]

IC50 (ASK1/MAP3K5) | Exposure [1] | bioavailability [1] | SMILES
≤ 50 nM |  |  | CC(C)n1cnnc1-c1cccc(-n2cnc3ccc(-n4cnc(C5CC5)c4)cc3c2=O)n1 [Example 013]
> 1000 nM |  |  | Cc1cc2ncn(-c3cccc(-c4nnc(C)n4C)n3)c(=O)c2cc1-n1cnc(C2CC2)c1 [Example 015]
≤ 50 nM | 20.356 µM·h | 148% | COc1ccc(-c2cc3ncn(-c4cccc(-c5nncn5C(C)C)n4)c(=O)c3cc2-n2cnc(C3CC3)c2)cn1 [Example 033]
≤ 50 nM |  |  | Cc1cc2ncn(-c3cccc(-c4nncn4C(C)CO)n3)c(=O)c2cc1-n1cnc(C2CC2)c1 (centres unmarked) [Example 057]
> 1000 nM |  |  | COc1nc2cc(C)c(-n3cnc(C4CC4)c3)cc2c(=O)n1-c1cccc(-c2nncn2C(C)C)n1 [Example 029]
≤ 50 nM |  |  | Cc1cc2ncn(-c3csc(-c4nncn4C(C)C)n3)c(=O)c2cc1-n1cnc(C2CC2)c1 [Example 046]
≤ 50 nM | 31.832 µM·h | 108% | Cc1cc2ncn(-c3cccc(-c4nncn4C(C)C)n3)c(=O)c2cc1-n1cnc(C2CC2)c1 [Example 011]
≤ 50 nM |  |  | Cc1cc2ncn(-c3cccc(-c4nncn4C4CCCC4)n3)c(=O)c2cc1-n1cnc(C2CC2)c1 [Example 044]
≤ 50 nM |  |  | CC(C)n1cnnc1-c1cccc(-n2cnc3cc(-c4cccnc4)c(-n4cnc(C5CC5)c4)cc3c2=O)n1 [Example 024]
≤ 50 nM | 89.099 µM·h | 115% | Cc1cc2c(cc1-n1cnc(C3CC3)c1)C(=O)N(c1cccc(-c3nnc4n3CCCC4)n1)CC2 [Example 009]
≤ 50 nM |  |  | CCc1cc2ncn(-c3cccc(-c4nncn4C(C)C)n3)c(=O)c2cc1-n1cnc(C2CC2)c1 [Example 022]
≤ 50 nM | 103.95 µM·h | 98.5% | Cc1cc2c(cc1-n1cnc(C3CC3)c1)C(=O)N(c1cccc(-c3nnc4n3CCC4)n1)CC2 [Example 008]
> 1000 nM |  |  | Cc1cc2ncn(-c3cccc(-c4nncn4C(C)C)c3)c(=O)c2cc1-n1cnc(C2CC2)c1 [Example 043]
≤ 50 nM |  |  | CC(C)n1cnnc1-c1cccc(-n2cnc3cc(Cl)c(-n4cnc(C5CC5)c4)cc3c2=O)n1 [Example 021]
≤ 50 nM |  |  | CC(C)n1cnnc1-c1cccc(-n2cnc3cc(OCCCS(C)(=O)=O)c(-n4cnc(C5CC5)c4)cc3c2=O)n1 [Example 040]
≤ 50 nM |  |  | Cc1cc2ncn(-c3cccc(-c4nncn4C(C)C)n3)c(=O)c2cc1-n1cnc(-c2ccccc2)c1 [Example 050]
50 to 1000 nM |  |  | Cc1cc2ncn(-c3cccc(-c4nnc5n4CCC5)n3)c(=O)c2cc1-n1cnc(C2CC2)c1 [Example 028]
> 1000 nM |  |  | Cc1nc(C2CC2)cn1-c1ccc2c(c1)C(=O)N(c1cccc(-c3nnc4n3CCCC4)n1)CC2 [Example 012]
50 to 1000 nM |  |  | O=C1c2cc(-n3cnc4c3CCCC4)ccc2CCN1c1cccc(-c2nnc3n2CCCC3)n1 [Example 010]
> 1000 nM |  |  | Cc1nnc(-c2cccc(-n3cnc4cc(C)c(-n5cnc(C6CC6)c5)cc4c3=O)n2)o1 [Example 020]
≤ 50 nM |  |  | CC(C)n1cnnc1-c1cccc(-n2cnc3cc(O)c(-n4cnc(C5CC5)c4)cc3c2=O)n1 [Example 037]
> 1000 nM |  |  | Cc1cc2ncn(-c3csc(-c4nncn4C(C)C)c3)c(=O)c2cc1-n1cnc(C2CC2)c1 [Example 042]
≤ 50 nM |  |  | COc1cc2ncn(-c3cccc(-c4nncn4C(C)C)n3)c(=O)c2cc1-n1cnc(C2CC2)c1 [Example 031]
50 to 1000 nM |  |  | Cc1cc2ncn(-c3cccc(-c4nnc(C)n4C(C)C)n3)c(=O)c2cc1-n1cnc(C2CC2)c1 [Example 016]
≤ 50 nM |  |  | CNC(=O)COc1cc2ncn(-c3cccc(-c4nncn4C(C)C)n3)c(=O)c2cc1-n1cnc(C2CC2)c1 [Example 039]
≤ 50 nM | 29.277 µM·h | 92% | Cc1cc2c(cc1-n1cnc(C3CC3)c1)C(=O)N(c1cccc(-c3nncn3C(C)C)n1)CC2 [Example 002]
